Measurements published in paper PMC11444200, “In Vitro Evaluation of Antipseudomonal Activity and Safety Profile of Peptidomimetic Furin Inhibitors” (Biomedicines, 2024).

Legend:
[1] = target: CYP3A4 (Homo sapiens, UniProt P08684); design: method as in PMID 35594709; details: PHH, previous studies; cited from earlier work
[2] = tested on: human airway Calu-3 cells; details: cited from earlier work
[3] = target: T1, Human serum albumin (HSA) (Homo sapiens, UniProt P02768); details: same experimental model, earlier study; cited from earlier work
T1 construct: purchased Merck (Darmstadt, Germany) A1653
T1 sequence (P02768 25-609): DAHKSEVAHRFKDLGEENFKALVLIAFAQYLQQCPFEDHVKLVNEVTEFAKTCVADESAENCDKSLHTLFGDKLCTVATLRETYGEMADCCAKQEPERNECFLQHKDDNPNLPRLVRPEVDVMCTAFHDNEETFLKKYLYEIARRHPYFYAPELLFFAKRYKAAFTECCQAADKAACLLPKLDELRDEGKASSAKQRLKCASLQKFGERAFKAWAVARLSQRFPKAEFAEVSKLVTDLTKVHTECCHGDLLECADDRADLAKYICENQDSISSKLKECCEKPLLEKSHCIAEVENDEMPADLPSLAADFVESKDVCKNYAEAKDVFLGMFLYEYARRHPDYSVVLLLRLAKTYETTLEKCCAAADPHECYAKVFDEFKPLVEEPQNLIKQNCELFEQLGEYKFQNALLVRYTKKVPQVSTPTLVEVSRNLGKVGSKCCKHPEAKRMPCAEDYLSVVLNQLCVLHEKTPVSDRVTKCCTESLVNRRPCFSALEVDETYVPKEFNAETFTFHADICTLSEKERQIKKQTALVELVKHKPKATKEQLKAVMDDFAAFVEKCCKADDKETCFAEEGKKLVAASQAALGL

[4] = tested on: primary human hepatocytes (PHH); design: method as in PMID 35594709; details: PHHs; cited from earlier work
[5] = tested on: primary human hepatocytes (PHH); design: method as in PMID 35594709; details: 100 µM; cited from earlier work
[6] = tested on: primary human hepatocytes (PHH); experiment: DCFH-DA intracellular ROS assay in primary human hepatocytes; assay type: cell-based; details: 50 µM and 100 µM, 24 h
Experimental: (§1) PHHs were purchased from Primacyt Cell Culture Technology GmbH (Schwerin, Germany). Hepatocytes were thawed using hepatocyte recovery medium (Primacyt, Schwerin, Germany) and cells were centrifuged (10 min, 100× g, 20 °C) to remove supernatants. Cells were incubated with 5% FBS-containing plating medium for 6 h, then with FBS-free maintenance medium at 37 °C with 5% CO2 (both media were obtained from Primacyt, Schwerin, Germany) on Matrigel-coated membrane inserts (Costar Transwell-COL PTFE permeable supports, 6.5 mm inserts, 0.4 µm pore size, 24-well plate, Corning Incorporated, Kennebunk, ME, USA) for the CCK-8 and Amplex Red procedures. Maintenance medium without FBS was replaced every 24 h and the cells were incubated.
The ability of inhibitors MI-1851 and MI-2415 to induce oxidative stress (ROS) within IPEC-J2 as well as of compound MI-2415 within PHHs was investigated with 2,7-dichloro-dihydro-fluorescein diacetate (DCFH2-DA). DCFH2-DA is a non-fluorescent compound that can passively diffuse across cell membranes due to its lipophilic nature. […] A Victor X2 2030 (Perkin Elmer, Waltham, MA, USA) was used to determine the fluorescence values of the samples (excitation wavelength: 485 nm, emission wavelength: 535 nm), which are directly proportional to the ROS generation.

[7] = tested on: primary human hepatocytes (PHH); experiment: Amplex Red extracellular H2O2 assay in primary human hepatocytes; assay type: cell-based; details: 50 µM and 100 µM, 24 h
Experimental: as §1
To evaluate the cellular responses of IPEC-J2 to the inhibitors MI-1851 and MI-2415, and those of PHHs to MI-2415, at different concentration levels, the Amplex Red hydrogen peroxide assay kit (Invitrogen, Molecular Probes, Budapest, Hungary) in combination with horseradish peroxidase has been used. In the presence of hydrogen peroxide (in 1:1 stoichiometry), Amplex Red produces a red fluorescent oxidation product, resorufin. The IPEC-J2 cells and PHHs were treated for 24 h with the inhibitor(s) at different concentration levels (50 and 100 μM). […]

[8] = tested on: primary human hepatocytes (PHH); experiment: CCK-8 cytotoxicity assay in primary human hepatocytes; assay type: cell-based; details: 50 µM and 100 µM, 24 h
Experimental: as §1
The possible cytotoxic effects of the inhibitors MI-1851 and MI-2415 (structures provided in Figure 1) in different concentrations on IPEC-J2 and those of inhibitor MI-2415 on PHHs were assessed for 24 h by performing the CCK-8 assay (Dojindo Molecular Technologies, Rockville, MD, USA). […] Following three times washing of the wells with PBS, 10 µL CCK-8 reagent mixed with 100 µL fresh Williams’ Medium E was added and the absorbance values were measured at 450 nm using the SpectraMax iD3 microplate reader (Molecular Devices, San José, CA, USA) after 2 h incubation. […]

CYP3A4, sequence (P08684 whole entry): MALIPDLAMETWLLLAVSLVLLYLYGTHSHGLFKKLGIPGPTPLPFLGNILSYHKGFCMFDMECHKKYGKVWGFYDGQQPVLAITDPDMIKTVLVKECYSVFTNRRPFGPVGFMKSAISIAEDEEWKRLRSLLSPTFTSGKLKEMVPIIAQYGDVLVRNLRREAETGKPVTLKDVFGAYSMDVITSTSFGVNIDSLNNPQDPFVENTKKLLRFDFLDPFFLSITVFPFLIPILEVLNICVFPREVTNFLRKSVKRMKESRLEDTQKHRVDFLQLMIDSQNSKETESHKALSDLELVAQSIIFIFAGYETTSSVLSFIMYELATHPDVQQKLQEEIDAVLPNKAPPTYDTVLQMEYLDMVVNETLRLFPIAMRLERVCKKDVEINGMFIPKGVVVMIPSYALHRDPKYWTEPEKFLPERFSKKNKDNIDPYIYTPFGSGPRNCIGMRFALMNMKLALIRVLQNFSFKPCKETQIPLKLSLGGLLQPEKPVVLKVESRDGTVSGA

| Structure (SMILES) | concentration at which significant inhibition of CYP3A4 was already observed [1] [µM] | non-cytotoxic concentration [2] | effect on emission signal of HSA [3] | non-cytotoxic concentration [4] | extracellular hydrogen peroxide production in PHHs [5] | intracellular ROS formation in PHHs [6] | extracellular H2O2 production in PHHs [7] | cell death in PHHs [8] |
| --- | --- | --- | --- | --- | --- | --- | --- | --- |
| CC(C)(C)[C@H](NC(=O)[C@H](CCONC(=N)N)NC(=O)Cc1ccc(CNC(=N)N)cc1)C(=O)N[C@@H](CCONC(=N)N)C(=O)NCc1ccc(C(=N)N)cc1 [MI-1851] | 20 | up to 50 µM | did not affect the emission signal of HSA | up to 100 µM | lacking any significant effect |  |  |  |
| CC(C)(C)[C@H](NC(=O)[C@H](CCONC(=N)N)NC(=O)Cc1ccc(CNC(=N)N)cc1)C(=O)N[C@@H](CCONC(=N)N)C(=O)NCc1ccc2c(c1)CN=C2N [MI-2415] |  |  |  |  |  | did not cause a redox imbalance | did not cause a redox imbalance | did not lead to significant cell death |
